Source: patent US8962854B2, “Luminescent substrate for luciferase” (The University of Electro-Communications, priority 2011, dated 2015)

Assays:
firefly luciferase = firefly luciferase (Photinus pyralis, UniProt P08659); assay: Bioluminescent emission spectrum measurement; type: biochemical; conditions: ATP-Mg
Protocol: In a 200 μL polystyrene tube, potassium phosphate buffer solution (0.5 M, pH 8.0, 20 μl), substrate solution (2.5 mM, 20 μl), enzyme solution (20 μl), to and ATP-Mg solution (10 mM, 40 μl) were mixed, and emission spectrum measurement was performed. An enzyme solution with a concentration of 17 μM was used. Enzymes with a concentration of 1.7 μM for the firefly luciferin and of 170 μM for the phenol-type luciferin, however, were used. The exposure time for emission spectrum measurement was 60 seconds. For the firefly luciferin, however, the time was five seconds.

[1] = University of Tokyo luciferin derivative; cited from earlier work
[2] = reaction with firefly luciferase, substrate solution 2.5 mM, enzyme solution 17 μM, pH 8.0, exposure 60 seconds

Chain of firefly luciferase (P08659 whole entry): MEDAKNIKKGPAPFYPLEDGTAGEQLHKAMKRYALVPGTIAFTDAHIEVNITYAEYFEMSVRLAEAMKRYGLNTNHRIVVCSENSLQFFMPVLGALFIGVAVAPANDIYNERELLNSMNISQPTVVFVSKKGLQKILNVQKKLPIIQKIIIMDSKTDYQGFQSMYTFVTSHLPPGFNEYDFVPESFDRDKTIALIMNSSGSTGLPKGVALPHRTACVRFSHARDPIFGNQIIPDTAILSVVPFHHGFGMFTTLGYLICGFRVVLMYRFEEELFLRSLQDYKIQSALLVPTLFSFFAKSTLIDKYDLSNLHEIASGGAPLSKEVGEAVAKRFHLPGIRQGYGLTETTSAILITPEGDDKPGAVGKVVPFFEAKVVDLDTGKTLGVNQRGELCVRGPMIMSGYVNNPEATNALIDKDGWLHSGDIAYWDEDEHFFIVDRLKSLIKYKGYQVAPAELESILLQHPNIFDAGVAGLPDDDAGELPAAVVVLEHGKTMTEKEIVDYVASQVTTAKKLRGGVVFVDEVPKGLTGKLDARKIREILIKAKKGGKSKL

C=CCc1c(O)ccc2nc(C3=N[C@@H](C(=O)O)CS3)sc12 [7-allyl-firefly luciferin 35, 7-allyl-firefly luciferin]
emission wavelength (firefly luciferase; [2]): 605 nm

O=C(O)[C@H]1CSC(/C=C/c2ccc3cc(O)ccc3c2)=N1 [compound 39]
emission wavelength (firefly luciferase; [2]): 660 nm

O=C(O)C1CSC(c2nc3ccc(O)cc3s2)=N1 (stereo not drawn) [Firefly luciferin]
emission wavelength (firefly luciferase; firefly luciferin: enzyme 1.7 μM, exposure five seconds, pH 8.0): 565 nm

Nc1ccc2nc(C3=N[C@@H](C(=O)O)CS3)sc2c1 [Aminoluciferin]
emission wavelength [1]: approximately 610 nm

C=CCc1c(O)ccc2cc(/C=C/C3=NC(C(=O)O)CS3)ccc12 (stereo not drawn) [compound 21]
emission wavelength (firefly luciferase; [2]): approximately 690 nm | emission wavelength (firefly luciferase; reaction with firefly luciferase, substrate solution 2.5 mM, enzyme solution 17 μM, pH 8.0, exposure 60 seconds, listed as FIG. 2): 690 nm
